Data: patent US4786648A, “O-substituted tetrahydropyridine oxime cholinergic agents” (Warner-Lambert Company, priority 1987, dated 1988)
Read-outs that look alike come from different tables or passages of the source.

Key:
[1] = test system: age-related cognitive deficits; details: H. P. Davis, et al (1983); cited from earlier work
[2] = target: central muscarinic binding site; details: radio-labeled quinuclidinyl benzilate (antagonist), rat cerebral cortex
[3] = target: central muscarinic binding site; assay: RCMD screening assay (inhibition of radio-labeled cis-methyldioxolane binding, rat cerebral cortex tissue)
Experimental: Similarly, in the RCMD screening assay, described more fully by T. W. Vickeroy, et al, J. Pharmacol. Exp. Ther., 229 (3): 747 (1984), rat cerebral cortex tissue was treated with radio-labeled cis-methyldioxolane,a known muscarinic binding site agonist. The concentrations of test compounds required to inhibit 50% of the binding of this muscarinic agonist were then determined.

[4] = test system: laboratory rats given scopolamine; assay: SIS, scopolamine induced swimming test; type: in vivo, rat; details: for minimal effective dose: Rattus norvegicus, sc, Tables 3 and 4, Subcutaneous, five minute test period, read-out: Minimal Effective Dose for Reversal of Scopolamine-Induced Swimming Hyperactivity; for reversal of scopolamine-induced swimming hyperactivity: rats given scopolamine
Experimental: In a second screening assay, designated SIS, the scopolamine induced swimming test, the ability of representative compounds of the present invention to reverse the hyperactive swimming behavior of laboratory rats given scopolamine was assessed. In this test, untreated rats will generally swim between 20 to 30 meters during a five minute test period. […] This swimming hyperactivity can be reversed by administration of physostigmine or the cholinergic agonist, arecoline. The effect of scopolamine is centrally mediated; the ability of a test compound to reverse the hyperactive swimming behavior induced by scopolamine is thus a measure of the central cholinergic activity of the compound.

[5] = test system: patients clinically diagnosed as having presenile primary degenerative dementia; details: double blind study, Christie, et al (1981); cited from earlier work
[6] = test system: Aged humans and nonhuman primates with decreased cognition; details: acetylcholinesterase inhibitor treatment; cited from earlier work
[7] = Table 1, radio-labeled cis-methyldioxolane (agonist)
[8] = Table 2, radio-labeled cis-methyldioxolane (agonist)

Structure (SMILES) | IC50 ([2]; Table 1) [nM] | IC50 [3, 7] [nM] | minimal effective dose ([4]; scopolamine 0.1 mg/kg, rats) [mg/kg] | other results
Nc1ccncc1N [3,4-diaminopyridine] |  |  |  | effect on age-related cognitive deficits [1]: ameliorate age-related cognitive deficits
CCC(=NOC)C1=CCCNC1 [Example 2, 1-(1,2,5,6-Tetrahydro-3-pyridinyl)-1-propanone, O-Methyloxime] | 9500 | 290 |  | 
CON=CC1=CCCN(C)C1 [Example 3, 1,2,5,6-Tetrahydro-1-methyl-3-pyridinecarboxaldehyde O-Methyloxime] | 1800 | 2 | 3.2 | 
CON=CC1=CCCNC1 [Example 4, 1,2,5,6-Tetrahydro-3-pyridinecarboxaldehyde, O-Methyl oxime] | 7100 | 10 | 3.2 | 
CCON=CC1=CCCN(C)C1 [Example 6, 1,2,5,6-Tetrahydro-1-methyl-3-pyridinecarboxaldehyde, O-Ethyloxime] | 10000 | 28 |  | 
CCON=CC1=CCCNC1 [Example 7, 1,2,5,6-Tetrahydro-3-pyridinecarboxaldehyde, O-ethyloxime] | 1000 | 42 |  | 
CON=C(C)C1=CCCNC1 [Example 8, 1-(1,2,5,6-Tetrahydro-3-pyridinyl)ethanone, O-methyloxime] | 5800 | 28 |  | 
CON=C(C)C1=CCNCC1 [Example 13, 1-(1,2,3,6-Tetrahydro-4-pyridinyl)ethanone, O-Methyloxime] |  |  | 10 | 
CON=CC1=CCN(C)CC1 [Example 14, 1,2,3,6-Tetrahydro-1-methyl-4-pyridinecarboxaldehyde, O-Methyloxime] |  |  | 32 | IC50 ([2]; Table 2): > 1 nM; IC50 [3, 8]: > 0.1 nM
CON=CC1=CCNCC1 [Example 15, 1,2,3,6-Tetrahydro-4-pyridinecarboxaldehyde, O-Methyloxime] |  |  |  | IC50 ([2]; Table 2): < 1 nM; IC50 [3, 8]: > 0.1 nM
COC(=O)C1=CCCN(C)C1 [arecoline, methyl ester of 1,2,5,6-tetrahydro-1-methyl-3-pyridinecarboxylic acid, reference compound] |  |  |  | reversal of scopolamine-induced swimming hyperactivity [4]: reversed; improvement in a test of picture recognition [5]: Significant improvement
CNC(=O)Oc1ccc2c(c1)[C@]1(C)CCN(C)[C@@H]1N2C [physostigmine, reference compound] |  |  |  | reversal of scopolamine-induced swimming hyperactivity [4]: reversed; memory in aged humans and nonhuman primates with decreased cognition [6]: improved memory
CN1[C@@H]2C[C@@H](OC(=O)[C@H](CO)c3ccccc3)C[C@H]1[C@@H]1O[C@@H]12 [scopolamine, reference compound] |  |  |  | increase of swimming distance above baseline values ([4]; scopolamine 0.1 mg/kg, rats): 75-125%
